Data from paper PMC11939955, “Enhancing Antimicrobial Peptides from Frog Skin: A Rational Approach” (Biomolecules, 2025).
Where no end group is shown, it is not given here.

How the values were obtained:
[1] = system: Vero cells; type: cell-based, African green monkey; settings: for CC50, concentration inducing 50% cell death in Vero cells / Cytotoxicity in Vero cells, CC50: 48 h
Method: The cytotoxicity of hylin-Pul3 and dHP3-84 peptides was evaluated on Vero cells procured from the Asociación Banco Argentino de Células (ABAC; Buenos Aires, Argentina). Cell viability was determined using the Neutral Red Uptake test (NRU) test, following a previously described methodology. The Vero cells were cultured in Minimum Essential Medium (MEM) supplemented with 8% fetal calf serum (FCS), 50 μg/mL gentamicin, and 2 mM glutamine. The cells were monitored by observing their morphological changes after 24 and 48 h of incubation.
For the NRU assay, the cells were seeded in 96-well culture plates at a density of 1 × 10^5 cells per well. The cell monolayers were treated with increasing concentrations of the peptide solutions (25–500 μg/mL) for 48 h in triplicate. The monolayers incubated with MM only were used as the control. Following exposure, the culture medium was replaced with 150 μL of a […] neutral red solution in MEM. After incubation at 37 °C for 3 h, the dye medium was discarded and the wells were gently washed with PBS. The intracellular dye was extracted using a mixture of acetic acid, ethanol, and water (1:50:49). After gentle agitation for 10 min, the absorbance values were measured at 540 nm.
The relative cell viability was calculated as a percentage of the NRU observed in the untreated control groups. The cell survival fraction was determined using the following formula: (4) Survival Fraction % (SF%)=D.O. treated cells/D.O. control cells×100

[2] = system: Klebsiella pneumoniae (ATCC 13883); type: cell-based
Method: (§1) Hylin-Pul3 and six derivatives (dHP3-31, dHP3-50, dHP3-50.137, dHP3-50.190, dHP3-84, and dHP3-84.39) were tested against two Gram-positive bacteria, Staphylococcus aureus (ATCC 25923) and Streptococcus mutans (ATCC 25175), as well as three Gram-negative bacteria: Escherichia coli (ATCC 25922), Klebsiella pneumoniae (ATCC 13883), and Acinetobacter baumannii (ATCC 13304). The minimal inhibitory concentration (MIC) was determined using the microbroth dilution.
(§2) The peptides were serially diluted in concentrations ranging 128 to 0.25 μM, with gentamicin serving as a positive control, which was serially diluted to concentrations of 20 to 0.04 μM. Bacterial cultures were prepared in Mueller–Hinton (MH) medium to achieve a final inoculum concentration of 5 × 10^5 CFU/mL. […] All tests were performed in duplicate and repeated across three independent experiments.

[3] = system: Acinetobacter baumannii (ATCC 13304); type: cell-based; settings: for Reduction in MIC against A. baumannii compared to hylin-Pul3: versus parent peptide hylin-Pul3
Method: as §1, §2

[4] = system: Staphylococcus aureus (ATCC 25923); type: cell-based
Method: as §1, §2

[5] = system: Streptococcus mutans (ATCC 25175); type: cell-based
Method: as §1, §2

[6] = system: Escherichia coli (ATCC 25922); type: cell-based; settings: for Reduction in MIC against E. coli compared to hylin-Pul3: versus parent peptide hylin-Pul3
Method: as §1, §2

[7] = system: Varicellovirus suidalpha1; type: cell-based; settings: hylin-Pul3 at 20 μg/mL (10.8 μM), dHP3-84 at 75 μg/mL (34.5 μM); Vero monolayers, 90 min adsorption then 72 h at 37 °C, plaque titer, duplicate
Method: Antiviral activity assays were performed following a previously described protocol with slight modifications. The efficacy of the peptide compounds was assessed at different stages of the viral lifecycle, including adsorption, penetration, and intracellular replication. The hylin-Pul3 and dHP3-84 peptides were tested at non-cytotoxic concentrations of 20 μg/mL (10.8 μM) and 75 μg/mL (34.5 μM), respectively. Vero cell monolayers (African green monkey kidney cells) were cultured in 24-well plates and exposed to the peptide solutions along with serial 10-fold dilutions of Varicellovirus suidalpha1, formerly known as Herpes suis virus type 1 (HSV-1). The assays were performed in duplicate. […] The viral plaques that formed on the Vero cells were stained (1% crystal violet) and the viral titers were determined. The percentage viral inhibition was calculated by comparing the reduction in viral titer between the treatment and control groups. This was determined using the following formula: (2) % viral inhibition=100−A/B×100 where “A” represents the viral titer expressed in PFU/mL (Plaque-Forming Units per milliliter) obtained in the treated cultures and “B” is the viral titer expressed in PFU/mL obtained in the untreated cultures.

[8] = DPPH radical-scavenging activity; settings: peptides 0.1, 0.05, 0.025 mg/mL, 30 min dark 25 °C, absorbance 515 nm, triplicate
Method: A stock solution of 60 µM 1,1-diphenyl-2-picrylhydrazyl (DPPH) was prepared in ethanol, with its absorbance adjusted to 0.7 at 515 nm immediately before the assay using a Shimadzu 1240 UV–visible spectrophotometer (Kyoto, Japan). The peptides were dissolved in PBS, and 20 µL aliquots of each peptide solution were incubated with 180 µL of the ethanolic DPPH solution in triplicate, at final concentrations of 0.1, 0.05, and 0.025 mg/mL. For the negative control, 20 µL of PBS was mixed with 180 µL of the DPPH solution, while 20 µL of Trolox (6-hydroxy-2,5,7,8-tetramethylchroman-2-carboxylic acid) served as the positive control and standard. The mixtures were incubated in the dark at 25 °C for 30 min, after which, the absorbance was measured at 515 nm. The reduction in absorbance, indicative of DPPH-scavenging activity, was compared to a standard curve. The results were expressed as milligrams of Trolox equivalents per milligram of peptide (mg Trolox equivalents/mg of peptide).

[9] = ABTS assay; settings: peptides 0.05, 0.025, 0.0125 mg/mL, 1 h dark, absorbance 734 nm, triplicate
Method: The 2,2-azinobis-3-ethylbenzothiazoline-6-sulfonic acid (ABTS^+) free radical-scavenging activity was determined following the method in [38]. The ABTS⁺ radical cation was generated by diluting a 245 mM ammonium persulfate (APS) solution at a ratio of 1:100 with a 7 mM ABTS solution, followed by overnight incubation in the dark at room temperature. The ABTS^+ solution was then diluted with water to obtain an absorbance of 0.70 at 734 nm immediately before the assay using a Shimadzu 1240 UV-visible spectrophotometer (Kyoto, Japan). The peptides were dissolved in PBS, and 10 µL aliquots of each peptide solution were incubated with 190 µL of the ABTS^+ solution in triplicate, at final concentrations of 0.05, 0.025, and 0.0125 mg/mL. After a 1 h incubation in the dark, the absorbance was measured at 734 nm. The radical-scavenging activity was quantified against a standard curve, with the results expressed as milligrams of Trolox equivalents per milligram of peptide.

[10] = system: E. coli (ATCC 25922); experiment: Synergistic checkerboard assay; type: cell-based, Escherichia coli
Method: Briefly, working solutions of the peptides were prepared and serially diluted by half across the rows and columns of a microplate, ensuring that each well contained a unique combination of peptide concentrations. The starting concentrations corresponded to the respective MIC values of each peptide, followed by two-fold serial dilutions.
Each well was filled with 50 µL of the peptide solution (individual or combined) and 50 µL of a bacterial suspension (1 × 10^6 CFU/mL), resulting in a final bacterial concentration of 5 × 10^5 CFU/mL. The individual peptide solutions served as positive controls, while the MH medium was employed as a negative control. The microplates were incubated at 37 °C overnight. The test was performed in three independent experiments. The fractional inhibitory concentrations index (ΣFIC) was calculated using the following equation: (1) ∑FIC =MIC(A) in combination/MIC(A) alone+MIC(B) in combination /MIC(B) alone
The FIC index (ΣFIC) was interpreted as follows: ΣFIC ≤ 0.5 indicated synergy; 0.5 < ΣFIC ≤ 4 indicated no effect; and 4 < ΣFIC indicated antagonism.

Substance | Cytotoxicity in Vero cells, MNCC [1] [µM] | CC50, concentration inducing 50% cell death in Vero cells [1] [µg/mL] | Cytotoxicity in Vero cells, CC50 [1] [µM] | Antimicrobial Activity (MIC) K. pneumoniae ATCC 13883 [2] [µM] | Antimicrobial Activity (MIC) A. baumannii ATCC 13304 [3] [µM] | Antimicrobial Activity (MIC) S. aureus ATCC 25923 [4] [µM] | Antimicrobial Activity (MIC) S. mutans ATCC 25175 [5] [µM] | Antimicrobial Activity (MIC) E. coli ATCC 25922 [6] [µM] | Antiviral Activity, viral inhibition [7] [%] | Reduction in MIC against A. baumannii compared to hylin-Pul3 [3] [fold] | Reduction in MIC against E. coli compared to hylin-Pul3 [6] [fold] | Antioxidant activity DPPH [8] | Antioxidant activity ABTS [9] [mg Trolox/mg] | Synergistic Activity, FIC Index (ΣFIC) ([10]; combination of dHP3-84 and dHP3-50.137, E. coli ATCC 25922, 5 × 10^5 CFU/mL, 37 °C overnight, three independent experiments, ΣFIC ≤ 0.5 = synergy) | Improvement of combined activity compared to each peptide individually ([10]; dHP3-84 + dHP3-50.137, E. coli) [fold] | Lower MIC than the original peptide against K. pneumoniae ([2]; versus hylin-Pul3) [fold]
FLGALIPAIAGAIGGLIRK-NH2 [hylin-Pul3, reference compound] | 13.5 | 80 | 43.2 | >64 | 32.0 ± 0.0 | 7.3 ± 1.6 | 4.6 ± 1.6 | 32.0 ± 0.0 | 0 |  |  |  |  |  |  | 
LWPAIRGAIKKLIKK-NH2 [dHP3-31] |  |  |  | >64 | 9.3 ± 3.2 | 37.3 ± 13.1 | 18.7 ± 6.5 | 16.0 ± 0.0 |  | 4 | 4 | did not reveal significant activity | 0.14 |  |  | 
RLGALIPAIRGAIKKLIKK-NH2 [dHP3-50] |  |  |  | 64.0 ± 0.0 | 6.6 ± 2 | 18.6 ± 6.5 | 8.0 ± 0.0 | 8.0 ± 0.0 |  | 4 | 4 |  |  |  |  | 
RLGKLIPRIAKAIGRLIRK-OH [dHP3-84] | 57.6 | 230 | 105.9 | 18.6 ± 6.5 | 8.0 ± 0.0 | 9.3 ± 3.3 | 7.3 ± 1.6 | 8.0 ± 0.0 | 70 | 4 | 4 |  |  | 0.5 | 2 | 4
RRIALIPAIRGAIKKLIKK-NH2 [dHP3-50.190] |  |  |  | >64 | 16.0 ± 0.0 | 29.3 ± 6.5 | 32.0 ± 0.0 | 9.3 ± 3.2 |  |  |  |  |  |  |  | 
